According to PubChem BioAssay AID2060888 (Molecular Pharmacology Branch, DTP, NCI, 2025):

Test system: 695427-040-R-J1-PDC complex spheroid viability
Experiment: Anticancer human tumor 695427-040-R-J1-PDC patient-derived colon adenocarcinoma cell line growth inhibition [RAS]
Conditions: for IC50: curve of first compound; for viability, T/C: stronger effect = lower value
Excerpt: RAS pathway inhibitors in Combinations in Complex Spheroids
A high-throughput screen of multi-cell type tumor spheroids was designed to identify active combinations of RAS pathway inhibitors and targeted small molecules. Complex spheroids include a stromal component modeled by human endothelial cells (HUVEC) and fibroblasts modeled by human mesenchymal stem cells (MSCs). The concentration ranges selected for each drug and investigational agent were based upon clinically achievable concentrations if the clinical Cmax of the agent was known.
Compounds. The drugs and investigational agents: abemaciclib (NSC768073), cobimetinib (NSC768068), divarasib (GDC6063, NSC841802), docetaxel (NSC628503), GDC-1971 (RLY-1971, NSC841576), gemcitabine (NSC613327), inavolisib (NSC800729), ipatasertib (NSC767898), KB-0742 (NSC834161), MRTX-1133 (NSC836407), osimertinib (NSC779217), RMC-4630 (NSC839698), RMC-6236 (NSC851965), RMC-6291 (NSC852671), Ro-3306 (NSC812927), sapanisertib (NSC764658), SN-38 (NSC673596), staurosporine (NSC755774), SY5609 (NSC837396), and tovorafenib (DAY101, NSC766906), were obtained from the National Cancer Institute (NCI) Developmental Therapeutics Program Chemical Repository. The FDA-approved anticancer drug set is available from the NCI Developmental Therapeutics Program. […] The stock solutions were prepared in dimethyl sulfoxide (DMSO, Sigma-Aldrich, St. Louis, MO, cat. D2650) at 800-fold the tested concentration and stored at -70 degrees C prior to their use. All drugs and investigational agents were tested over a range starting from a high concentration at or near the clinical Cmax and decreasing in half-log increments. If the clinical Cmax for an agent had not been determined, the highest concentration tested was 10 microM.
Cell Culture. All cells were maintained in an incubator at 37 degrees C and 5% CO2 with 95% humidity. The PDC lines were cultured according to standard operating procedures established by the NCI PDMR. All PDCs were thawed and cultured in Matrigel-coated flasks prepared with a working solution of 1X Ham's F-12 nutrient mix, without supplementation (Invitrogen, Waltham, MA, cat. 11765054), 100 U/mL penicillin-streptomycin (Invitrogen, cat. 15140122), and 2.5% Matrigel (Corning Inc., Corning, NY, cat. 354248) for the first three passages. The 362531-283-R-J2-PDC and 782815-120-R-J1-PDC lines were cultured in 6C/Colon 1B media, which includes advanced DMEM/F-12 (Thermo Fisher Scientific, cat. 12634028), 10 mM HEPES (Thermo Fisher Scientific, cat. 15630080), 1X GlutaMAX supplement (Thermo Fisher Scientific, cat. 35050061), 0.1 mg/mL primocin (InvivoGen, San Diego, CA, cat. ant-pm-2), 10% defined fetal bovine serum, heat inactivated (HyClone Laboratories Inc., Logan, UT, cat. SH30070.03HI), 50% L-WRN conditioned media (ATCC, cat. CRL-3276), 1.25 mM N-Acetyl-L-cysteine (Sigma-Aldrich, cat. A9165), 10 mM nicotinamide (Sigma-Aldrich, cat. N0636), 1X B-27 supplement (Thermo Fisher Scientific, cat. 17504044), 1X N-2 supplement (Thermo Fisher Scientific, cat. 17502048), 50 ng/mL human EGF (Thermo Fisher Scientific, cat. PHG0311), and 10 microM Y-27632 dihydrochloride (Tocris Bioscience, cat. 1254). The K12877-001-R-J1-PDC line was cultured in 6I media, which includes all 6C/Colon 1B media plus 10 ng/mL human FGF-10 (PeproTech, cat. 100-26), 1 ng/mL human FGF-2 (PeproTech, cat. 100-18B), 1 µM prostaglandin E2 (Tocris Bioscience, cat. 2296), […] hydrocortisone (Sigma-Aldrich, cat. H4001), and […] bovine insulin (Sigma-Aldrich, cat. I6634). The K86415-001-R-J1-PDC line was cultured in 6D media, which includes all 6C/Colon 1B media components minus the L-WRN conditioned media. The 485176-168-R4-J1-PDC was cultured in PANC media, which includes all 6C/Colon 1B media plus 100 ng/mL human FGF-10 (PeproTech, cat. 100-26), 500 nM SB-431542 (Selleckchem, cat. S1067), and 10 nM gastrin (Tocris Bioscience, cat. 3006). […]

[1] = second compound 0.0316 µM, first compound 0.0316 µM
[2] = second compound 0.0316 µM, first compound 0.1 µM
[3] = second compound 0.0316 µM, first compound 0.316 µM
[4] = second compound 0.0316 µM, first compound 1 µM
[5] = second compound 0.0316 µM, first compound 3.16 µM
[6] = second compound 0.0316 µM, first compound 10 µM
[7] = second compound 0.1 µM, first compound 0.0316 µM
[8] = second compound 0.1 µM, first compound 0.1 µM
[9] = second compound 0.1 µM, first compound 0.316 µM
[10] = second compound 0.1 µM, first compound 1 µM
[11] = second compound 0.1 µM, first compound 3.16 µM
[12] = second compound 0.1 µM, first compound 10 µM
[13] = second compound 0.316 µM, first compound 0.0316 µM
[14] = second compound 0.316 µM, first compound 0.1 µM
[15] = second compound 0.316 µM, first compound 0.316 µM
[16] = second compound 0.316 µM, first compound 1 µM
[17] = second compound 0.316 µM, first compound 3.16 µM
[18] = second compound 0.316 µM, first compound 10 µM
[19] = second compound 1 µM, first compound 0.0316 µM
[20] = second compound 1 µM, first compound 0.1 µM
[21] = second compound 1 µM, first compound 0.316 µM
[22] = second compound 1 µM, first compound 1 µM
[23] = second compound 1 µM, first compound 3.16 µM
[24] = second compound 1 µM, first compound 10 µM
[25] = second compound 3.16 µM, first compound 0.0316 µM
[26] = second compound 3.16 µM, first compound 0.1 µM
[27] = second compound 3.16 µM, first compound 0.316 µM
[28] = second compound 3.16 µM, first compound 1 µM
[29] = second compound 3.16 µM, first compound 3.16 µM
[30] = second compound 3.16 µM, first compound 10 µM
[31] = second compound 10 µM, first compound 0.0316 µM
[32] = second compound 10 µM, first compound 0.1 µM
[33] = second compound 10 µM, first compound 0.316 µM
[34] = second compound 10 µM, first compound 1 µM
[35] = second compound 10 µM, first compound 3.16 µM
[36] = second compound 10 µM, first compound 10 µM
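Further: viability read after seven days of drug exposure.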
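Wherever viability, T/C is given: 100% = DMSO vehicle control viability.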

`CCC(CC)c1cc(NC2CCC(N)C2)n2nccc2n1` (stereo unspecified) + C#Cc1c(F)ccc2cc(O)cc(-c3ncc4c(N5CC6CCC(C5)N6)nc(OCC56CCCN5CC(F)C6)nc4c3F)c12 showed an IC50 (second compound 0.0316 µM) of 1960 nM, an IC50 (second compound 0.1 µM) of 1890 nM and an IC50 (second compound 0.316 µM) of 1800 nM. It also gave an IC50 (second compound 1 µM) of 1600 nM, an IC50 (second compound 3.16 µM) of 1240 nM and an IC50 (second compound 10 µM) of less than 31.6 nM. For the same molecule, the viability, T/C [1] was 102%, the viability, T/C [2] was 109% and the viability, T/C [3] was 110%. For the same molecule, the viability, T/C [4] was 110%, the viability, T/C [5] was 5.99% and the viability, T/C [6] was 12.4%. It also gave a viability, T/C [7] of 95.5%, a viability, T/C [8] of 90.5% and a viability, T/C [9] of 108%. The viability, T/C [10] was 101%, the viability, T/C [11] was 6.65% and the viability, T/C [12] was 13.9%. For the same molecule, the viability, T/C [13] was 99.3%, the viability, T/C [14] was 90.8% and the viability, T/C [15] was 97.2%. It also gave a viability, T/C [16] of 91.3%, a viability, T/C [17] of 7.6% and a viability, T/C [18] of 13.9%. The viability, T/C [19] was 76.9%, the viability, T/C [20] was 70.5% and the viability, T/C [21] was 76.8%. The viability, T/C [22] was 82.1%, the viability, T/C [23] was 6.13% and the viability, T/C [24] was 17%. For the same molecule, the viability, T/C [25] was 66.9%, the viability, T/C [26] was 59.6% and the viability, T/C [27] was 64.9%. The viability, T/C [28] was 59.2%, the viability, T/C [29] was 4.92% and the viability, T/C [30] was 15.3%. The viability, T/C [31] was 40.6%, the viability, T/C [32] was 43.7% and the viability, T/C [33] was 43.6%. The viability, T/C [34] was 38.2%, the viability, T/C [35] was 1.94% and the viability, T/C [36] was 7.42%.

In the case of `Cc1nc(N2CCC3(CC2)COC(C)C3N)c(CO)nc1Sc1ccnc(N)c1Cl` (stereo unspecified) + C#Cc1c(F)ccc2cc(O)cc(-c3ncc4c(N5CC6CCC(C5)N6)nc(OCC56CCCN5CC(F)C6)nc4c3F)c12, the IC50 (second compound 0.0316 µM) is reported as greater than 10000 nM, the IC50 (second compound 0.1 µM) is reported as greater than 10000 nM and the IC50 (second compound 0.316 µM) is reported as 1980 nM. For the same molecule, the IC50 (second compound 1 µM) was 477 nM, the IC50 (second compound 3.16 µM) was 36.3 nM and the IC50 (second compound 10 µM) was less than 31.6 nM. The viability, T/C [1] was 92.3%, the viability, T/C [2] was 80.5% and the viability, T/C [3] was 70.7%. The viability, T/C [4] was 75%, the viability, T/C [5] was 70.5% and the viability, T/C [6] was 51.1%. For the same molecule, the viability, T/C [7] was 89.2%, the viability, T/C [8] was 78.1% and the viability, T/C [9] was 79.2%. For the same molecule, the viability, T/C [10] was 60.9%, the viability, T/C [11] was 60.2% and the viability, T/C [12] was 51.9%. It also gave a viability, T/C [13] of 78.7%, a viability, T/C [14] of 66.2% and a viability, T/C [15] of 56.7%. For the same molecule, the viability, T/C [16] was 57.1%, the viability, T/C [17] was 50.5% and the viability, T/C [18] was 39.2%. It also gave a viability, T/C [19] of 65.8%, a viability, T/C [20] of 63.2% and a viability, T/C [21] of 51.2%. For the same molecule, the viability, T/C [22] was 42.1%, the viability, T/C [23] was 40.4% and the viability, T/C [24] was 26%. For the same molecule, the viability, T/C [25] was 51.3%, the viability, T/C [26] was 44% and the viability, T/C [27] was 38.1%. For the same molecule, the viability, T/C [28] was 32.6%, the viability, T/C [29] was 23.5% and the viability, T/C [30] was 16.2%. The viability, T/C [31] was 33.2%, the viability, T/C [32] was 27.7% and the viability, T/C [33] was 27.3%. For the same molecule, the viability, T/C [34] was 18.6%, the viability, T/C [35] was 15.8% and the viability, T/C [36] was 10.3%.

Molecule `NC1c2ccccc2OC12CCN(c1cnc3c(N4CCCc5ncccc54)n[nH]c3n1)CC2` (stereo unspecified) + C#Cc1c(F)ccc2cc(O)cc(-c3ncc4c(N5CC6CCC(C5)N6)nc(OCC56CCCN5CC(F)C6)nc4c3F)c12 has an IC50 (second compound 0.0316 µM) of 1180 nM, an IC50 (second compound 0.1 µM) of 583 nM and an IC50 (second compound 0.316 µM) of 141 nM. It also gave an IC50 (second compound 1 µM) of 50.8 nM, an IC50 (second compound 3.16 µM) of less than 31.6 nM and an IC50 (second compound 10 µM) of less than 31.6 nM. For the same molecule, the viability, T/C [1] was 69.6%, the viability, T/C [2] was 65.6% and the viability, T/C [3] was 57.4%. The viability, T/C [4] was 50%, the viability, T/C [5] was 45.2% and the viability, T/C [6] was 33.6%. The viability, T/C [7] was 69%, the viability, T/C [8] was 61.8% and the viability, T/C [9] was 55.9%. It also gave a viability, T/C [10] of 45.1%, a viability, T/C [11] of 34.9% and a viability, T/C [12] of 23.5%. For the same molecule, the viability, T/C [13] was 66.8%, the viability, T/C [14] was 52.1% and the viability, T/C [15] was 40.8%. The viability, T/C [16] was 31.9%, the viability, T/C [17] was 25.5% and the viability, T/C [18] was 12.8%. For the same molecule, the viability, T/C [19] was 55.8%, the viability, T/C [20] was 40.9% and the viability, T/C [21] was 33.6%. For the same molecule, the viability, T/C [22] was 25.7%, the viability, T/C [23] was 15.8% and the viability, T/C [24] was 8.19%. The viability, T/C [25] was 39.6%, the viability, T/C [26] was 27.4% and the viability, T/C [27] was 23.4%. The viability, T/C [28] was 15.9%, the viability, T/C [29] was 12.2% and the viability, T/C [30] was 5.36%. For the same molecule, the viability, T/C [31] was 23.9%, the viability, T/C [32] was 18.9% and the viability, T/C [33] was 10.8%. The viability, T/C [34] was 7.6%, the viability, T/C [35] was 4.71% and the viability, T/C [36] was 1.43%.
